Laboratory results taken from patent US20070128217A1 (priority 2003, published 2007).

Columns and labels:
[1] = system: control sera (pooled serum of ten healthy LUMC hospital workers; commercial negative donor pooled serum from the Dutch bloodbank); assay type: binding, human
[2] = system: antibodies in sera from SARS patients (sera 1a, 1b, 2, 6, 37, 62, London, SARS-yellow, SARS-green); assay type: binding, human
[3] = system: rabbit serum obtained by immunizing a rabbit with the SARS-CoV strain Frankfurt 1; assay type: binding; design: Binding of a rabbit serum to linear peptides / Binding of a rabbit serum to looped peptides / Rabbit serum linear peptides / Rabbit serum looped peptides / Binding of a rabbit serum to linear peptides of protein N of SARS-CoV Urbani (Rabbit serum linear peptides) / Binding of a rabbit serum to looped/cyclic peptides of protein N of SARS-CoV Urbani (Rabbit serum looped peptides): unit not given here

Sequence	Binding of Control Serum Blood-Bank to Looped peptides [1]	Binding of Control serum Blood-bank to linear peptides [1]	Binding of Control serum LUMC to linear peptides [1]	Binding of Control serum LUMC to looped peptides [1]	Binding of serum 1a to linear peptides of protein E of SARS-CoV Urbani [2]	Binding of serum 1a to looped/cyclic peptides of protein E of SARS-CoV Urbani [2]	Binding of serum 1b to linear peptides of protein E of SARS-CoV Urbani [2]	Binding of serum 1b to looped/cyclic peptides of protein E of SARS-CoV Urbani [2]	Binding of serum 2 to linear peptides of protein E of SARS-CoV Urbani [2]	Binding of serum 2 to looped/cyclic peptides of protein E of SARS-CoV Urbani [2]	Binding of serum 6 to linear peptides of protein E of SARS-CoV Urbani [2]	Binding of serum 6 to looped/cyclic peptides of protein E of SARS-CoV Urbani [2]	Binding of serum 37 to linear peptides of protein E of SARS-CoV Urbani [2]	Binding of serum 37 to looped/cyclic peptides of protein E of SARS-CoV Urbani [2]	Binding of serum 62 to linear peptides of protein E of SARS-CoV Urbani [2]	Binding of serum 62 to looped/cyclic peptides of protein E of SARS-CoV Urbani [2]	Binding of serum London to linear peptides of protein E of SARS-CoV Urbani [2]	Binding of serum London to looped/cyclic peptides of protein E of SARS-CoV Urbani [2]	Binding of serum SARS-green to linear peptides of protein E of SARS-CoV Urbani [2]	Binding of serum SARS-green to looped/cyclic peptides of protein E of SARS-CoV Urbani [2]	further results
LFLAFVVFLLVTLAI	0.6	0.7	0.5	0.7	0.9	0.5	0.5	0.5	0.9	0.6	0.7	0.5	0.7	0.6	0.7	0.7	0.8	0.5	0.5	0.7	Binding of serum SARS-yellow to linear peptides of protein E of SARS-CoV Urbani [2]: 0.2; Binding of serum SARS-yellow to looped/cyclic peptides of protein E of SARS-CoV Urbani [2]: 0.9; Binding of a rabbit serum to linear peptides [3]: 0.5; Binding of a rabbit serum to looped peptides [3]: 0.3
LLVTLAILTALRLCA	0.8	0.7	0.3	0.8	0.8	0.7	0.4	0.1	0.5	0.6	0.4	0.4	0.6	0.3	0.6	0.8	0.5	0.4	0.4	0.6	Binding of serum SARS-yellow to linear peptides of protein E of SARS-CoV Urbani [2]: 0.0; Binding of serum SARS-yellow to looped/cyclic peptides of protein E of SARS-CoV Urbani [2]: 0.3; Binding of a rabbit serum to linear peptides [3]: 0.5; Binding of a rabbit serum to looped peptides [3]: 0.8
LRLCAYCCNIVNVSL	0.6	0.8	0.4	0.6	0.7	0.7	0.6	0.4	0.4	0.5	0.6	0.4	0.7	0.6	0.7	0.6	0.5	0.4	0.3	0.6	Binding of serum SARS-yellow to linear peptides of protein E of SARS-CoV Urbani [2]: 0.3; Binding of serum SARS-yellow to looped/cyclic peptides of protein E of SARS-CoV Urbani [2]: 0.6; Binding of a rabbit serum to linear peptides [3]: 0.6; Binding of a rabbit serum to looped peptides [3]: 0.2
LTALRLCAYCCNIVN	0.7	0.7	0.5	0.6	0.9	0.6	0.8	0.4	0.4	0.7	0.7	0.5	0.8	0.7	0.7	0.7	0.5	0.3	0.3	0.3	Binding of serum SARS-yellow to linear peptides of protein E of SARS-CoV Urbani [2]: 0.2; Binding of serum SARS-yellow to looped/cyclic peptides of protein E of SARS-CoV Urbani [2]: 0.4; Binding of a rabbit serum to linear peptides [3]: 0.6; Binding of a rabbit serum to looped peptides [3]: 0.4
LVTLAILTALRLCAY	0.6	0.6	0.3	0.8	0.8	0.6	0.5	0.5	0.6	1.0	0.7	0.4	0.7	0.7	0.7	0.6	0.5	0.4	0.3	0.6	Binding of serum SARS-yellow to linear peptides of protein E of SARS-CoV Urbani [2]: 0.1; Binding of serum SARS-yellow to looped/cyclic peptides of protein E of SARS-CoV Urbani [2]: 0.4; Binding of a rabbit serum to linear peptides [3]: 0.4; Binding of a rabbit serum to looped peptides [3]: 0.3
